From patent US9150899B2, “Identification of compounds modifying a cellular response” (2cureX, priority 2004, dated 2015) come the findings set out here.

For the assay, the system named is GFP expressing U2OS cells and GFP expressing Hek293 cells. Briefly: Screening of adhesion D-amino peptide library for low fluorescence/high adherence properties. It is filed as cell-based, Human. Particulars: re-synthesized adhesion peptides on PEGA beads; six re-synthesized plus four additional peptides compared. As to the method: Approx. 100 adhesion peptide library beads were mixed with 1×10E6 cells (BHK, CHO, U2OS, Hek) in each well of a Falcon 12 well plate using 2 ml growth medium. The adhesion peptide library was prepared according to the general methods for solid phase peptide synthesis outlined above. The library consisted of heptamers of D-amino acids. The peptide library beads were PEGA beads each coupled to a potential adhesion peptide. The cells and beads were mixed gently every 15 min for 2 hrs. Supernatant with non-attached cells were removed and new growth medium added. Cells/beads were incubating for another 16 hrs. (37° C., 5% CO2). Cell adhesive beads were identified using a microscope with 10× objective and positive beads were transferred to a filter paper (to suck off medium). Peptides were identified by amino acid sequencing.
An adhesion D-amino peptide library was synthesized (500.000 members) as described above in Example 2a and screened for low fluorescence/high adherence properties. This was done in 4 steps: • 1) Selection of low fluorescent beads by Fluorescence Activated Bead Sorting (FABS). […]
The 150.000 low fluorescent beads were incubated with GFP expressing U2OS cells followed by FABS sorting for high fluorescence (high cell adhesion). […] 47 beads with high cell adhesion properties were isolated using a fluorescence microscope. • 4) Sequence elucidation and re-synthesis of selected peptides. […]

Non-standard residues stand in square brackets, D forms with d. No end group written: not given here.

In the case of “SEQ ID 35: adhesion peptide arg gln arg ile arg (D-amino acids) ([dR][dQ][dR][dI][dR])”, the “overall performance (low fluorescence/high adherence properties)” value is “best overall performance”.
